Experimental data reported in patent US8263606B2 (Xenon Pharmaceuticals Inc., priority 2008, dated 2012).

Key:
sodium channel = experiment: Guanidine influx assay (14C-guanidine radiotracer flux, in vitro); type: cell-based, human or rat; conditions: guanidine influx assay using a known cell line that expresses a sodium channel
How it was run: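 Cells stably expressing human or rat sodium channels (~100,000/well, 20–24 h) were exposed in low-sodium choline buffer to test agent plus aconitine activator and 14C-guanidine at ambient temperature. Intracellular 14C-guanidine was counted by scintillation; IC50 fitted by 4-parameter logistic over half-dilutions around 1 μM.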

CYP3A4 = CYP3A4 (Homo sapiens, UniProt P08684); experiment: Cytochrome P450 (CYP450) Inhibition Assay, CYP3A4 (Vivid fluorescence, BOMCC substrate); conditions: human, P450 Baculosomes (recombinant CYP3A4), probe BOMCC (Vivid substrate)
CYP3A4, sequence (P08684 whole entry): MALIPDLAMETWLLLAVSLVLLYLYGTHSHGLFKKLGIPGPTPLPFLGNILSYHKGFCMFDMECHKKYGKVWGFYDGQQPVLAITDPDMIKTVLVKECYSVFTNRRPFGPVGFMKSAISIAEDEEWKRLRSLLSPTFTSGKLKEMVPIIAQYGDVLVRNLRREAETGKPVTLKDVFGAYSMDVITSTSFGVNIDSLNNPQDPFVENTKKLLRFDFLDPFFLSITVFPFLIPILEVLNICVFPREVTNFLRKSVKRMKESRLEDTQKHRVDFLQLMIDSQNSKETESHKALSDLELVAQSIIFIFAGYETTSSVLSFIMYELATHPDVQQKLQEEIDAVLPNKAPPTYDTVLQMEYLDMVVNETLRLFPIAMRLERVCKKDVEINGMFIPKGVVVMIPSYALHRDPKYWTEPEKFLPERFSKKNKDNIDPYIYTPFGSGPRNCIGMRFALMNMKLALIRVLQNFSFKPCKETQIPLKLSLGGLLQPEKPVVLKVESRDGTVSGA

SMILES | IC50 (sodium channel) [µM] | melting point [°C] | inhibition at 10 µM (CYP3A4) [%] | IC50 (sodium channel; activity level class) [µM]
O=C1N(CCCO)c2ccccc2C12COc1cc3c(cc12)OCCO3 (stereo not drawn) [Example 17.2, 1′-(3-hydroxypropyl)-2,3-dihydrospiro[furo[2,3-g][1,4]benzodioxine-8,3′-indol]-2′(1′H)-one] | 0.001 to 0.1 | 157 to 158 | < 50 | 
CCCCCCCNC(=O)c1ccccc1CN1C(=O)C2(COc3cc4c(cc32)CCO4)c2ccccc21 (stereo not drawn) [Example 12.15, N-heptyl-2-[(2′-oxo-5,6-dihydrospiro[benzo[1,2-b:5,4-b′]difuran-3,3′-indol]-1′(2′H)-yl)methyl]benzamide] | 1 to 10 | 196 to 198 | > 50 | 
O=C1Nc2ccc(F)cc2C12COc1cc3c(cc12)CCO3 (stereo not drawn) [Example 3.4, 5′-fluoro-5,6-dihydrospiro[benzo[1,2-b:5,4-b′]difuran-3,3′-indol]-2′(1′H)-one] |  | 257 to 259 | > 50 | 1 to 10
O=C1Nc2ccccc2C12COc1cc3c(cc12)OCCO3 (stereo not drawn) [Example 3.10, 2,3-dihydrospiro[furo[2,3-g][1,4]benzodioxine-8,3′-indol]-2′(1′H)-one] |  | > 250 | < 50 | 0.001 to 0.1
COc1cc2c(cc1C)[C@]1(CO2)C(=O)Nc2ccccc21 [Example 3.26, (3R)-6-methoxy-5-methylspiro[1-benzofuran-3,3′-indol]-2′(1′H)-one] |  | > 250 | > 50 | 1 to 10
CC(C)(C)OC(=O)N1C(=O)C2(COc3cc4c(cc32)OCO4)c2c(Br)cccc21 (stereo not drawn) [Example 18.1, tert-butyl 4′-bromo-2′-oxospiro[furo[2,3-f][1,3]benzodioxole-7,3′-indole]-1′(2′H)-carboxylate] | 0.001 to 0.1 | 154 to 156 | > 50 | 
O=C(Nc1nccs1)c1ccc(CN2C(=O)C3(COc4cc5c(cc43)CCO5)c3ccccc32)cc1 (stereo not drawn) [Example 12.43, 4-[(2′-oxo-5,6-dihydrospiro[benzo[1,2-b:5,4-b′]difuran-3,3′-indol]-1′(2′H)-yl)methyl]-N-1,3-thiazol-2-ylbenzamide] | 0.1 to 1 | > 250 | < 50 | 
COC(=O)c1ccc(CN2C(=O)C3(COc4cc5c(cc43)OCCO5)c3ccccc32)cc1 (stereo not drawn) [Example 9.59, methyl 4-[(2′-oxo-2,3-dihydrospiro[furo[2,3-g][1,4]benzodioxine-8,3′-indol]-1′(2′H)-yl)methyl]benzoate] | 0.001 to 0.1 | 167 to 169 | < 50 | 
Cc1nc(CN2C(=O)C3(COc4cc5c(cc43)OCO5)c3ccccc32)c(C(F)(F)F)o1 (stereo not drawn) [Example 1.9, 1′-{[2-methyl-5-(trifluoromethyl)-1,3-oxazol-4-yl]methyl}spiro[furo[2,3-f][1,3]benzodioxole-7,3′-indol]-2′(1′H)-one] |  | 136 to 137 | > 50 | 0.001 to 0.1
Cc1nc2cc3c(cc2s1)C1(CO3)C(=O)N(Cc2ccccn2)c2ccccc21 (stereo not drawn) [Example 9.21, 2-methyl-1′-(pyridin-2-ylmethyl)spiro[furo[2,3-f][1,3]benzothiazole-7,3′-indol]-2′(1′H)-one] |  | 249 to 250 | < 50 | 1 to 10
CC(C)(C)c1nc(CN2C(=O)C3(COc4cc5c(cc43)OCO5)c3ccccc32)no1 (stereo not drawn) [Example 11.23, 1′-[(5-tert-butyl-1,2,4-oxadiazol-3-yl)methyl]spiro[furo[2,3-f][1,3]benzodioxole-7,3′-indol]-2′(1′H)-one] | 0.001 to 0.1 | 183 to 185 | > 50 | 
Nc1ccc2c(c1)OCC21C(=O)N(C[C@H]2CCCO2)c2ccccc21 (stereo partly drawn) [Example 11.47, 6-amino-1′-[(2R)-tetrahydrofuran-2-ylmethyl]spiro[1-benzofuran-3,3′-indol]-2′(1′H)-one] | 1 to 10 | 71 to 74 | > 50 | 
Cl.O=C1N(C[C@H]2CCCO2)c2ccccc2C12COc1cc(O[C@H]3CCNC3)ccc12 (stereo partly drawn) [Example 11.56, 6-[(3S)-pyrrolidin-3-yloxy]-1′-[(2R)-tetrahydrofuran-2-ylmethyl]spiro[1-benzofuran-3,3′-indol]-2′(1′H)-one hydrochloride] | 1 to 10 | 119 to 121 | < 50 | 
CN(C)c1ncc(CN2C(=O)C3(COc4cc5c(cc43)OCO5)c3ccccc32)s1 (stereo not drawn) [Example 11.1, 1′-{[2-(dimethylamino)-1,3-thiazol-5-yl]methyl}spiro[furo[2,3-f][1,3]benzodioxole-7,3′-indol]-2′(1′H)-one] | 0.001 to 0.1 | 200 to 202 | > 50 | 
CCc1ccccc1NC(=O)c1ccc(CN2C(=O)C3(COc4cc5c(cc43)CCO5)c3ccccc32)cc1 (stereo not drawn) [Example 12.34, N-(2-ethylphenyl)-4-[(2′-oxo-5,6-dihydrospiro[benzo[1,2-b:5,4-b′]difuran-3,3′-indol]-1′(2′H)-yl)methyl]benzamide] | 1 to 10 | 203 to 204 | > 50 | 
O=C1N(Cc2cnc(O)nc2)c2ccccc2C12COc1cc3c(cc12)OCCO3 (stereo not drawn) [Example 35.1, 1′-[(2-hydroxypyrimidin-5-yl)methyl]-2,3-dihydrospiro[furo[2,3-g][1,4]benzodioxine-8,3′-indol]-2′(1′H)-one] | 1 to 10 | > 250 | < 50 | 
CC(C)(C)CCNC(=O)CN1C(=O)C2(COc3cc4c(cc32)CCO4)c2ccccc21 (stereo not drawn) [Example 12.49, N-(3,3-dimethylbutyl)-2-(2′-oxo-5,6-dihydrospiro[benzo[1,2-b:5,4-b′]difuran-3,3′-indol]-1′(2′H)-yl)acetamide] | 0.1 to 1 | 161 to 163 | > 50 | 
O=C1N(CCc2noc(C(F)(F)F)n2)c2ccccc2C12COc1cc3c(cc12)OCO3 (stereo not drawn) [Example 11.18, 1′-{2-[5-(trifluoromethyl)-1,2,4-oxadiazol-3-yl]ethyl}spiro[furo[2,3-f][1,3]benzodioxole-7,3′-indol]-2′(1′H)-one] | 0.001 to 0.1 | 45 to 48 | > 50 | 
O=C1N(Cc2sccc2Cl)c2ccccc2C12COc1cc3c(cc12)OCO3 (stereo not drawn) [Example 6.3, 1′-[(3-chlorothiophen-2-yl)methyl]spiro[furo[2,3-f][1,3]benzodioxole-7,3′-indol]-2′(1′H)-one] |  | 161 to 163 | > 50 | 0.001 to 0.1
Nc1nc(C(F)(F)F)c(CN2C(=O)C3(COc4cc5c(cc43)OCO5)c3ccccc32)s1 (stereo not drawn) [Example 4.82, 1′-{[2-amino-4-(trifluoromethyl)-1,3-thiazol-5-yl]methyl}spiro[furo[2,3-f][1,3]benzodioxole-7,3′-indol]-2′(1′H)-one] |  | 165 to 167 | > 50 | 0.1 to 1
Cn1c(CN2C(=O)C3(COc4cc5c(cc43)OCCO5)c3ccccc32)nc2ccccc21 (stereo not drawn) [Example 4.120, 1′-[(1-methyl-1H-benzimidazol-2-yl)methyl]-2,3-dihydrospiro[furo[2,3-g][1,4]benzodioxine-8,3′-indol]-2′(1′H)-one] |  | > 240 | > 50 | 0.001 to 0.1
O=C1N(Cc2ncccc2C(F)(F)F)c2c(F)cccc2C12COc1cc3c(cc12)OCCO3 (stereo not drawn) [Example 8.16, 7′-fluoro-1-((3-(trifluoromethyl)pyridin-2-yl)methyl)-3,7-dihydro-2H-spiro[benzofuro[5,6-b][1,4]dioxine-8,3′-indolin]-2′-one] |  | 241 to 243 | < 50 | 0.001 to 0.1
O=C1N(CCCOCc2ccccc2)c2ccccc2C12COc1cc3c(cc12)OCCO3 (stereo not drawn) [Example 9.43, 1′-[3-(benzyloxy)propyl]-2,3-dihydrospiro[furo[2,3-g][1,4]-benzodioxine-8,3′-indol]-2′(1′H)-one] |  | 37 to 38 | < 50 | 0.001 to 0.1
Cc1ccc(NC(=O)CN2C(=O)C3(COc4cc5c(cc43)CCO5)c3ccccc32)c(C)c1 (stereo not drawn) [Example 12.54, N-(2,4-dimethylphenyl)-2-(2′-oxo-5,6-dihydrospiro[benzo[1,2-b:5,4-b′]difuran-3,3′-indol]-1′(2′H)-yl)acetamide] | 1 to 10 | 277 to 279 | > 50 | 
O=C1N(Cc2ncccc2C(F)(F)F)c2ccccc2C12COc1cc3c(cc12)OC(F)(F)O3 (stereo not drawn) [Example 2.36, 2,2-difluoro-1′-{[3-(trifluoromethyl)pyridin-2-yl]methyl}spiro[furo[2,3-f][1,3]benzodioxole-7,3′-indol]-2′(1′H)-one] |  | 200 to 201 | < 50 | 1 to 10
O=C1N(Cc2ccc(OCc3ccccc3)cc2)c2ccccc2C12COc1cc3c(cc12)CCO3 (stereo not drawn) [Example 9.38, 1′-[4-(benzyloxy)benzyl]-5,6-dihydrospiro[benzo[1,2-b:5,4-b′]difuran-3,3′-indol]-2′(1′H)-one] |  | 169 to 170 | < 50 | 0.1 to 1
CC(C)CCN1C(=O)C2(COc3cc(O)c(C(=O)C(F)(F)F)cc32)c2ccccc21 (stereo not drawn) [Example 11.50, 6-hydroxy-1′-(3-methylbutyl)-5-(trifluoroacetyl)spiro[1-benzofuran-3,3′-indol]-2′(1′H)-one] | 1 to 10 | 87 to 88 | > 50 | 
O=C1N(Cc2ncccn2)c2ccccc2C12COc1cc3c(cc12)CCO3 (stereo not drawn) [Example 9.5, 1′-(pyrimidin-2-ylmethyl)-5,6-dihydrospiro[benzo[1,2-b:5,4-b′]difuran-3,3′-indol]-2′(1′H)-one] |  | 203 to 205 | < 50 | 0.001 to 0.1
